In US4757076A, “Method of inhibiting aromatase” (Eli Lilly and Company, priority 1984, dated 1988):
Where a name gives a salt, the structure may show the parent alone.

Assays:
aromatase = biological target: T1, aromatase (Rattus norvegicus, UniProt P22443); test: Aromatase inhibition in the rat ovarian microsome assay (modified isolated rat ovarian microsome method of Brodie et al.); assay type: biochemical; details: rat ovarian microsomes; substrate (androstenedione) concentration 0.1 μM
T1 construct: ovarian microsomes are obtained from rats treated with pregnant mares serum gonadotropin; from tissue; host or cells: ovarian microsomes of rats treated with pregnant mares serum gonadotropin
T1 sequence (P22443 1-508): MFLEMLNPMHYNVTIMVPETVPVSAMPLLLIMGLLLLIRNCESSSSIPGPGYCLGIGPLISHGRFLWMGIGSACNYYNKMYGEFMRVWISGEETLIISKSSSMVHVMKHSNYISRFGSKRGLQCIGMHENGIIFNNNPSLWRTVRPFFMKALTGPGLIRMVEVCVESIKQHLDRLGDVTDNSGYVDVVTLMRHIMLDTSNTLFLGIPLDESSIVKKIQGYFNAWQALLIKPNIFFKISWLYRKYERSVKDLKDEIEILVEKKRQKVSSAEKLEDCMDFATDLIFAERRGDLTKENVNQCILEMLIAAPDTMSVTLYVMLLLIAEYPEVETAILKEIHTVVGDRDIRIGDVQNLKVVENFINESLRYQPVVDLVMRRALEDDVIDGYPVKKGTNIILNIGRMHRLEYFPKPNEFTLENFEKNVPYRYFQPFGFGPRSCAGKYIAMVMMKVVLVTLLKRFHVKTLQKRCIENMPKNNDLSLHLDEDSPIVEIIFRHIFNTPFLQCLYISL
Experimental: In this test system, ovarian microsomes are obtained from rats treated with pregnant mares serum gonadotropin. Test compounds are added to reaction vials containing 0.1 μM 4-androstene-3,17-dione, 100,000 dpm 1,2[^3 H]-androstenedione, the microsomes and a NADPH generating system. The concentrations of the inhibitors tested ranged between 0.005 and 10 μM.

[1] = system: DMBA-induced mammary tumors; test: DMBA-Induced Mammary Tumor Inhibition; assay type: in vivo, female Sprague-Dawley rats; details: 300 ppm in diet (approx. 30 mg/kg/day)
Experimental: Mammary tumors were produced in female Sprague-Dawley rats which were 50-60 days old by the gavage administration of 20 mg of 7,12-dimethylbenz[a]anthracene (DMBA). About six weeks after DMBA administration, the mammary glands were palpated at weekly intervals for the appearance of tumors. Whenever one or more tumors appeared and were measurable in an animal, that animal was selected for experimentation. […] Each control and test group contained 8 animals. The test compound was administered mixed into the food at a concentration of 300 ppm (corresponding to an appropriate daily dose of 30 mg/kg). The experiment included a group of control rats having tumors and were given food without the compound admixed. […] The area of each tumor was calculated by multiplying the shortest and longest diameters of the tumor. The treatment and measurement of animals continued for 5 weeks at which time the final areas of the tumors were determined.

[2] = system: estrogen synthesis (aromatization); test: Estrogen Synthesis Inhibition in Rats (uterine weight and ovarian steroid concentration); assay type: in vivo, immature female Wistar rats; details: 7 days; for Mean Uterine Weight: testosterone propionate-treated, significantly different from testosterone-treated control (163.88); for Mean Steroid Concentration, estriol / Mean Steroid Concentration, estradiol: ovary; for Mean Steroid Concentration, estriol: testosterone-treated control 0.68; for Mean Steroid Concentration, estradiol: testosterone-treated control 1.29
Experimental: Test compounds were administered for seven days as a component of the diet. Control animals received diet without the test compound. Beginning on the fourth day of the test, all animals treated with the test compound and one half of the control animals were given a subcutaneous injection of 1.0 mg of testosterone propionate in corn oil. The remaining control animals received only an equivalent volume of corn oil.
After two hours, the animals were killed by decapitation. Uteri were isolated, trimmed of extraneous connective tissue, and weighed.
The ovarian steroids were extracted with 1.5 ml of 9:1 (v/v) toluene/ethanol to which had been added 25 to 100 mcg. each of unlabelled estradiol, estriol, and estrone, and approximately 1000 dpm of [^14 C]-estradiol. The samples were vortexed, centrifuged at 500×g for 10 minutes, and the organic phase was transferred to a conical vial. Two additional extractions were performed on the residue in the same way. The pooled organic extracts were evaporated for subsequent thin-layer chromatography.
Ovarian proteins were precipitated by the addition of 5.0 ml of ethanol to the remaining aqueous phase. After an overnight incubation at 4° C., the samples were centrifuged at 1500×g for 10 minutes. The supernatant was discarded, and the pellet was dissolved in 0.3 N potassium hydroxide.
The organic residue from each above extraction was redissolved in 9:1 (v/v) dichloromethane/methanol. The solution of each sample was applied to separate silica gel thin layer chromatography plates which contained a fluorescent indicator. The plates were developed in the first dimension with 160:38:1.5:0.5 (v/v/v/v) dichloromethane/ethyl acetate/methanol/acetic acid to within 3 cm of the top of the plate. After air-drying, the plate was developed in the second dimension with 180:19:1 (v/v/v) dichloromethane/methanol/ammonium hydroxide. The plate was air-dried and viewed under 254 nm UV light.
The visible spots were marked, and the plates were sprayed with primulin (0.001% in 4:1 v/v acetone/water) according to the method of Wright, J. Chromatography, 59, 220 (1971) which allowed for the identification of additional steroids under 365 nm UV light. The spots were scraped from the plate using a glass wool plugged Pasteur pipet attached to a vacuum line. The steroids were eluted directly into scintillation vials by the addition of 0.2 ml of dichloromethane followed by two washes each of 2.0 ml of methanol. The organic solvent was evaporated and 10.0 ml of scintillation fluid (Beckman Ready Solv-NA) was added to the vials. Samples were analyzed by liquid scintillation spectrometry. Corrections were made based on the recoveries of the [^14 C]-steroid. Steroid concentrations are expressed as femtomoles per milligram protein.

[3] = 30 ppm in feed (approx. 3 mg/kg/day)

| SMILES | EC50 (aromatase) | further results |
| --- | --- | --- |
| OC(c1ccc(Cl)cc1)c1cccnc1 (stereo not drawn) [α-(3-pyridyl)-4-chlorobenzyl alcohol] | 2400 nM | – |
| OC(Cc1ccc(Cl)cc1Cl)(Cc1ccc(Cl)cc1Cl)c1cccnc1 [α,α-bis(2,4-dichlorobenzyl)-3-pyridinemethanol hydrochloride] | 1850 nM | – |
| OC(c1cccnc1)(c1cccc(Br)c1)c1cccc(Br)c1 [α,α-bis(3-bromophenyl)-3-pyridinemethanol] | 2200 nM | – |
| Cc1ccc(C(O)(c2ccccc2)c2cccnc2)cc1 (stereo not drawn) [α-(4-methylphenyl)-α-phenyl-3-pyridinemethanol] | 2400 nM | – |
| CN(C)c1ccc(C(O)(c2ccncc2)c2ccc(N(C)C)cc2)cc1 [α,α-bis[4-(dimethylamino)phenyl]-4-pyridinemethanol] | 3400 nM | – |
| Clc1ccccc1C(c1ccncc1)c1ccccc1Cl [4-bis(2-chlorophenyl)methylpyridine] | 490 nM | – |
| OC(Cc1ccc(Cl)cc1Cl)(c1ccc(Cl)cc1)c1cccnc1 (stereo not drawn) [α-(2,4-dichlorobenzyl)-α-(4-chlorophenyl)-3-pyridinemethanol hydrochloride] | > 5000 nM | – |
| Clc1ccc(Cc2ccncc2)cc1 [4-(4-chlorobenzyl)pyridine] | 550 nM | – |
| O=[N+]([O-])c1ccc(Cc2ccncc2)cc1 [4-(4-nitrobenzyl)pyridine] | 980 nM | – |
| OC(c1ccc(Cl)cc1)(c1ccc(Cl)cc1)c1cccnc1 [α,α-bis(4-chlorophenyl)-3-pyridinemethanol] | – | Mean Tumor Area, Finish ([1]; after 5 weeks, control 1140): 433 mm^2; Mean Tumor Area, Start ([1]; start of 5-week test, control 73.9): 108.8 mm^2; Mean Uterine Weight ([2]; 30 ppm in feed (approx. 3 mg/kg/day), 4 animals, p < 0.05): 127.25 mg; Mean Uterine Weight ([2]; 300 ppm in feed (approx. 30 mg/kg/day), 5 animals, p < 0.05): 87.80 mg; Mean Steroid Concentration, estriol [2, 3]: 0.70 femtomoles per milligram of protein; Mean Steroid Concentration, estradiol [2, 3]: 1.04 femtomoles per milligram of protein; Mean Steroid Concentration, estriol ([2]; 300 ppm in feed (approx. 30 mg/kg/day)): 0.39 femtomoles per milligram of protein; Mean Steroid Concentration, estradiol ([2]; 300 ppm in feed (approx. 30 mg/kg/day), p < 0.05): 0.36 femtomoles per milligram of protein |
| CCCSC(c1ccc(Cl)cc1)(c1ccc(Cl)cc1)c1cccnc1 [3-[α-(4-chlorophenyl)-α-(n-propylthio)-4-chlorobenzyl]pyridine] | 1750 nM | – |
| OC(Cc1ccc(Cl)cc1Cl)(c1ccc(Cl)cc1)c1cccnc1 (stereo not drawn) [α-(2,4-dichlorobenzyl)-α-(4-chlorophenyl)-3-pyridinemethanol] | 3200 nM | – |
| OC(Cc1ccc(Cl)cc1)(c1ccncc1)c1ccc(Cl)cc1 (stereo not shown) [1,2-bis(4-chlorophenyl)-1-(4-pyridyl)ethanol] | 185 nM | – |
| OC(Cc1ccc(Cl)cc1)(Cc1ccc(Cl)cc1Cl)c1cccnc1 (stereo not drawn) [α-(4-chlorobenzyl)-α-(2,4-dichlorobenzyl)-3-pyridinemethanol] | 2400 nM | – |
| OC(Cc1ccc(Cl)cc1)(c1ccc(Cl)cc1)c1cccnc1 (stereo not drawn) [α-(4-chlorobenzyl)-α-(4-chlorophenyl)-3-pyridinemethanol] | 2900 nM | – |
| Cc1cncc(C(O)(c2ccccc2)c2ccc(Cl)cc2)c1 (stereo not drawn) [α-(4-chlorophenyl)-5-methyl-α-phenyl-3-pyridinemethanol] | 4100 nM | – |
| OC(Cc1ccc(Cl)c(Cl)c1)(c1ccc(Cl)cc1)c1cccnc1 (stereo not drawn) [α-(3,4-dichlorobenzyl)-α-(4-chlorophenyl)-3-pyridinemethanol] | 3150 nM | – |
| OC(Cc1ccc(Cl)cc1)(c1cccnc1)c1cccc(Cl)c1 (stereo not drawn) [α-(4-chlorobenzyl)-α-(3-chlorophenyl)-3-pyridinemethanol] | 3200 nM | – |
| OC(c1cccnc1)(c1ccc(Cl)cc1Cl)c1ccc(Cl)cc1Cl [α,α-bis(2,4-dichlorophenyl)-3-pyridinemethanol hydrochloride] | 4000 nM | – |
| OC(c1ccc(Cl)cc1)(c1cccnc1)c1ccc2c(c1)OCO2 (stereo not drawn) [α-(4-chlorophenyl)-α-(3,4-methylenedioxyphenyl)-3-pyridinemethanol] | 500 nM | – |
| OC(Cc1ccccc1)(Cc1ccccc1)c1cccnc1 [α,α-dibenzyl-3-pyridinemethanol] | 2850 nM | – |
| OC(c1ccccc1)(c1cccnc1)c1ccc(F)cc1F (stereo not drawn) [α-(2,4-difluorophenyl)-α-phenyl-3-pyridinemethanol] | 2050 nM | – |
| CCCN(CCC)C(c1ccc(Cl)cc1)c1cccnc1 (stereo not drawn) [α-(4-chlorophenyl)-N,N--di(n-propyl)-3-pyridylmethylamine] | 150 nM | – |
| OC(Cc1ccc(Cl)cc1)(Cc1ccc(Cl)cc1)c1cccnc1 [α,α-bis(4-chlorobenzyl)-3-pyridinemethanol] | > 5000 nM | – |
